{"source": "paper PMC9271048", "about": "“Probing strigolactone perception mechanisms with rationally designed small-molecule agonists stimulating germination of root parasitic weeds” (Nature Communications, 2022)", "test_system": "ShHTL7S95C", "assay": "Hydrolysis reaction analysis with ShHTL7 S95C mutant", "assay_type": "biochemical, Striga hermonthica", "conditions": "Supplementary Fig. 24a", "procedure": "Compounds 4a, (R)- and (S)-4a, 4g-i, and rac-GR24 were dissolved in DMSO and prepared as stock solution ([…]) just before use. A 200 μL of the reaction solution consisting of PBS buffer (pH 7.3), 10 μM samples, and 10 μg recombinant ShHTL7 or its mutants was incubated at 30 °C for 30 min; with the reaction solution (200 μL) containing PBS buffer (pH 7.3) and 10 μM samples as the blank control[40],[52]. Subsequently, the reaction was terminated by adding 200 μL of methanol, and then the reaction mixture was shaken for 10 s and centrifuged at 5310 × g for 60 s. The supernatant was filtered and the remaining amount of samples was analyzed by HPLC. The relative percentages of hydrolysis were obtained by using the amount of compounds in blank control as reference.\nSupplementary Fig. 24. a, Relative percentage of hydrolysis of compound 4g by ShHTL7S95A, ShHTL7S95C, and ShHTL7. b, LC-MS analysis of the full-length His-tagged ShHTL7 in native condition. c, LC-MS analysis of the full-length His-tagged ShHTL7S95A in native condition, the mass of 34699 Da (reduction of […] compared with that of ShHTL7) is the peak of ShHTL7S95A. d, LC-MS analysis of full-length His-tagged ShHTL7S95C in native condition, the mass increment of 18 Da […]", "data": [{"smiles": "CC1=CC(OC(=O)N2CCN(C(=O)COc3ccc(Br)cc3C)CC2)CC1=O", "note": "(stereo not shown) [4g]", "values": [{"measurement": "relative percentage of hydrolysis by ShHTL7S95C, source data average", "value": 4.848, "unit": "%"}]}]}
